Activity calls are given as the source filed them.
Assays:
Format in all cases: functional
[1] = biological target: Sphingosine 1-phosphate receptor 2 (Homo sapiens, UniProt O95136); assay: Dose Response Cell Based Assay for Agonists of the S1P2 Receptor of Purchased Analogues. [Related pubchem assays: 729, 843, 854, 736 ]
[2] = biological target: Potassium voltage-gated channel subfamily KQT member 2 (Rattus norvegicus, UniProt O88943, W236L); assay: potentiation of rat KCNQ2 current – cell-based, automated electrophysiology, mechanism study for KCNQ2 potentiator project, dose response (AID 2603)
Galanin receptor type 2 = Galanin receptor type 2 (Homo sapiens, UniProt O43603); assay: Dose Response cell-based high-throughput screening assay to identify antagonists of galanin receptor 2 (GALR2). [Related pubchem assays: 828, 866 ]
INS1 = assay: INS-1E survival protection against cytokine death – cell-based, luminescence, retest, dose response (AID 449756); conditions: Rattus norvegicus;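 also: cell death triggered by IL-1 beta plus TNF-alpha plus IFN-gamma mixture; protective hits raise ATP signal compared with cytokine alone wells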
[3] = Luminescence Cell-Based Dose Response to Identify Activators of 5'UTR Stem-Loop Driven Prion Protein mRNA Translation in H4-C Neuroglioblastoma Cells. [Related pubchem assays: 1829 (Project Summary), 1814 (Primary HTS)]
[4] = Luminescence Cell-Based Dose Confirmation HTS to Identify Activators of 5'UTR Stem-Loop Driven Alpha-Synuclein mRNA Translation in H4 Neuroglioblastoma Cells. [Related pubchem assays: 1829 (Project Summary), 1814 (Primary HTS)]
[5] = Luminescence Cell-Based Dose Response HTS to Identify Activators of Luciferase Translation or Activity in H4 […] Cells. [Related pubchem assays: 1829 (Project Summary), 1814 (Primary HTS)]
H4 = assay: Luminescence Cell-Based Dose Response HTS to Identify Activators of 5'UTR Stem-Loop Driven Prion Protein mRNA Translation in H4 Neuroglioblastoma Cells. [Related pubchem assays: 1829 (Project Summary), 1814 (Primary HTS)]; conditions: Homo sapiens
[6] = Luminescence Cell-Based Dose Response to Identify Activators of Luciferase Translation or Activity in H4-C Neuroglioblastoma Cells. [Related pubchem assays: 1829 (Project Summary), 1814 (Primary HTS)]
[7] = Luminescence Cell-Based Dose Confirmation to Identify Activators of 5'UTR Stem-Loop Driven Alpha-Synuclein mRNA Translation in H4 Neuroglioblastoma Cells. [Related pubchem assays: 1829 (Project Summary), 1814 (Primary HTS)]
Mucolipin-3 = Mucolipin-3 (Homo sapiens, UniProt Q8TDD5); assay: Dose response cell-based high-throughput screening assay for agonists of the transient receptor potential channel ML3 (TRPML3). [Related pubchem assays: 1526, 1424, 1448 ]
Ion channel NompC = Ion channel NompC (Danio rerio, UniProt Q7T1G6); assay: Fluorescence counterscreen assay for TRPML3 agonists: dose response cell-based high-throughput screening assay to identify agonists of the transient receptor potential channel N1 (TRPN1). [Related pubchem assays: 1526, 1424, 1448 ]
[8] = antiviral protection against BTV-induced cell death – arbovirus, BSR cells, confirmation (AID 1250);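 also: protection from viral cytopathic effect measured as cell viability by ATP luminescence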

Sequence of Sphingosine 1-phosphate receptor 2 (O95136 whole entry): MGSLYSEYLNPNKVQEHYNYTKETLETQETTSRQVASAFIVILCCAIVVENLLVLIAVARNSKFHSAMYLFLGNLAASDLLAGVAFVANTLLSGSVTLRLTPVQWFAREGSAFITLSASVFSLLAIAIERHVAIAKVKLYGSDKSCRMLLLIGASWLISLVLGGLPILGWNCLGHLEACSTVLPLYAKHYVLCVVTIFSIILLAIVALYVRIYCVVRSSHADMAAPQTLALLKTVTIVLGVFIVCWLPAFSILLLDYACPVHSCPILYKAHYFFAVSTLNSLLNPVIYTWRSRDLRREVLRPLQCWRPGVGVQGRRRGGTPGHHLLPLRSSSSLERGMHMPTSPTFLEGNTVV
Sequence of Mucolipin-3 (Q8TDD5 whole entry): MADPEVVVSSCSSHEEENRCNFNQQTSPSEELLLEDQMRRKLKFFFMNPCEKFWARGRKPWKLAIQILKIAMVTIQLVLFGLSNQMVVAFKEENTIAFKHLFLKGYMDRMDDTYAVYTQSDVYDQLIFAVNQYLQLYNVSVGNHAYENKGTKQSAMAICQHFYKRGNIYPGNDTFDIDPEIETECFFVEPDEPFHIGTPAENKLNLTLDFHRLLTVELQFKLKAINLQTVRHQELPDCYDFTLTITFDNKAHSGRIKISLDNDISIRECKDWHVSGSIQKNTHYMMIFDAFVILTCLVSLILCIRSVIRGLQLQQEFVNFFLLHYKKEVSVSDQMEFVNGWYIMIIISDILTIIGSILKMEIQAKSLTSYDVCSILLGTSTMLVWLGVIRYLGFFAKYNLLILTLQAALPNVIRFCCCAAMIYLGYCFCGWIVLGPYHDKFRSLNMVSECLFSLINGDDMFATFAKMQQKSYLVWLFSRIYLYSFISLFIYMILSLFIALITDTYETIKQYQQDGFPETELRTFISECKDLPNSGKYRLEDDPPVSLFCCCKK
Sequence of Galanin receptor type 2 (O43603 whole entry): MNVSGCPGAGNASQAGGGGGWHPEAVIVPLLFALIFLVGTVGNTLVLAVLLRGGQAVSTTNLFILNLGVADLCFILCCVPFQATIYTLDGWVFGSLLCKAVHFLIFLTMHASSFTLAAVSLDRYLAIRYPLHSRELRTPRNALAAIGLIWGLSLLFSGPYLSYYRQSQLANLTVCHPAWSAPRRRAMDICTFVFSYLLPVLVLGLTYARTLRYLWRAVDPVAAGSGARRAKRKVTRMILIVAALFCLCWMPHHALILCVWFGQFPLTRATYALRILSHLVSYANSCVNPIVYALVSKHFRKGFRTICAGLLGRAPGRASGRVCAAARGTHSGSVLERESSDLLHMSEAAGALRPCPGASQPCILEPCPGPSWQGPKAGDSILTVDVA
Sequence of Potassium voltage-gated channel subfamily KQT member 2 (O88943 whole entry W236L): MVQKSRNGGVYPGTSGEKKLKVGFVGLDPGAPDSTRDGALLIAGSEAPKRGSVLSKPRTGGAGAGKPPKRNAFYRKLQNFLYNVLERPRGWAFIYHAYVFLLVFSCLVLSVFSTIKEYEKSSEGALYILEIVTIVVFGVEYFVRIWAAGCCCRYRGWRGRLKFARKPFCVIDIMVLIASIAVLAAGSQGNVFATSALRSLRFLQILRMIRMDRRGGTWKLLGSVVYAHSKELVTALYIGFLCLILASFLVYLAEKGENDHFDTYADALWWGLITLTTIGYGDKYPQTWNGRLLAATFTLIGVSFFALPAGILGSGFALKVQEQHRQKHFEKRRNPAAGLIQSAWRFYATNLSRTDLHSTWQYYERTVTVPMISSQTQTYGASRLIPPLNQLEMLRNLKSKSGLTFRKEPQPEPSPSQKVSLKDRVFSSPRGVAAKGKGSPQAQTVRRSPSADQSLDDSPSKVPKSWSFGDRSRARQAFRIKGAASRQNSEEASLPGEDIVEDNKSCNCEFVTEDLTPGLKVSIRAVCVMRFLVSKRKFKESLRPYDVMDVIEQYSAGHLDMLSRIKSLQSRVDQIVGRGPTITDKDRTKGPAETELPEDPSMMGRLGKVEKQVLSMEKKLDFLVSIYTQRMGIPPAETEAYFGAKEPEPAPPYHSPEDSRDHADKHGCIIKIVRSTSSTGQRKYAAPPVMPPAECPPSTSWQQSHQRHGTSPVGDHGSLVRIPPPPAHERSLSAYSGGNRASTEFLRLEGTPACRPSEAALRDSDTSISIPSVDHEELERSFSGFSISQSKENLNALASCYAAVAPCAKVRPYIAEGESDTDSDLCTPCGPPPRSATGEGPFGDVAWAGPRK
Sequence of Ion channel NompC (Q7T1G6 whole entry): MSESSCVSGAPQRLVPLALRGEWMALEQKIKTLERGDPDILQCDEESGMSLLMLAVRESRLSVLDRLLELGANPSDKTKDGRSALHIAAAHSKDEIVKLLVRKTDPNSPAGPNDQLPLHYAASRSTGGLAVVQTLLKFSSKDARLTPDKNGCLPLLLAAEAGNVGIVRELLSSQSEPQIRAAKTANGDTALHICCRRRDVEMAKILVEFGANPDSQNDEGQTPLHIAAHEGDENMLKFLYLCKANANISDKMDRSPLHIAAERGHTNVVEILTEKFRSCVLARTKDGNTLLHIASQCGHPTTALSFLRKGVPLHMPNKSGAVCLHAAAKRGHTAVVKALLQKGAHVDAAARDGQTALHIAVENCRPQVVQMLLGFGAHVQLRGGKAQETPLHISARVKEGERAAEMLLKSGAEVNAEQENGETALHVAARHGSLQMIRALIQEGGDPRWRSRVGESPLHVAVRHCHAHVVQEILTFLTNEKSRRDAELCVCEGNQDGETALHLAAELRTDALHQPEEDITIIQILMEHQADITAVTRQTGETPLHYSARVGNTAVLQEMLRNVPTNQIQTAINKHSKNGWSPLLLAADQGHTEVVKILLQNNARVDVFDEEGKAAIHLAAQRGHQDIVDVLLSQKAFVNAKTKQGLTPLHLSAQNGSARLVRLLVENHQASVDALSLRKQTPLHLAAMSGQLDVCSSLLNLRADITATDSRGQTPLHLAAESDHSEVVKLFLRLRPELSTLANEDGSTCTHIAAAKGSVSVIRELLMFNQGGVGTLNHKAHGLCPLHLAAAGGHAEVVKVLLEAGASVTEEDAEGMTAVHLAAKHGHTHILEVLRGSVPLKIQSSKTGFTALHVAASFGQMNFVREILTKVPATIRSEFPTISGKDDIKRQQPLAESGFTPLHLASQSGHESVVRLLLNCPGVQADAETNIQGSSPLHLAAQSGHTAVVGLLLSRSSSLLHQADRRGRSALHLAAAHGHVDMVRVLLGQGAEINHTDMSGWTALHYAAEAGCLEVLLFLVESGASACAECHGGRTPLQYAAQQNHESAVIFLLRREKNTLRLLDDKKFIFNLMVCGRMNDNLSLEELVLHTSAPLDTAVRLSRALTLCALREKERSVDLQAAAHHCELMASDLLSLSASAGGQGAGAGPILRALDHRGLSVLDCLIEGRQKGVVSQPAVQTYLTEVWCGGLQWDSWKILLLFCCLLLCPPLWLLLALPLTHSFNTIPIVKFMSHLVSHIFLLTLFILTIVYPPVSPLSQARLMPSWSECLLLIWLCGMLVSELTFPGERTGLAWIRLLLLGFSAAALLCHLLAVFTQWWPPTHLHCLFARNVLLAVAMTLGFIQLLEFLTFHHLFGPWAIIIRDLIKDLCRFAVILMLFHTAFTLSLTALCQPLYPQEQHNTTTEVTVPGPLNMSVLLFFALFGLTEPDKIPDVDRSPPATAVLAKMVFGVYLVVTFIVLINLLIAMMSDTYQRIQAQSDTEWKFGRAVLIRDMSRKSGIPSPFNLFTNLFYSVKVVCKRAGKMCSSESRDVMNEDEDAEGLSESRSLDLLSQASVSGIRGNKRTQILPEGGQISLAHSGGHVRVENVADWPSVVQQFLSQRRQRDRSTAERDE

In the case of `Cc1cc(C(=O)COC(=O)CN2C(=O)C3CCCCC3C2=O)c(C)n1Cc1ccccc1` (stereo not drawn), the EC50 [1] is reported as > 30 µM (not active).

For `Cc1nc(C)c(-c2csc(Nc3ccccn3)n2)s1`, the EC50 [2] was 115 µM (active).

For `CCOC(=O)N1CCN(c2[nH]cnc3c4cc(F)ccc4nc2-3)CC1`, the IC50 (Galanin receptor type 2) was 45.6 µM (not active) and the AC50 (INS1) was 5.61 µM (active).

With `CC1CCCCN1CCCNC(=O)c1ccc2nc(N3CCCCC3)sc2c1` (stereo not drawn) the EC50 [3] was 0.994 µM (active), the EC50 [4] was 0.177 µM (active) and the EC50 [5] was < 0.1 µM (active). For the same compound, the EC50 (H4) was 15.1 µM (active), the EC50 [6] was 0.397 µM (active) and the EC50 [7] was 0.593 µM (active).

For `CSc1nc2ccccc2nc1N(C)S(=O)(=O)c1ccc(C)cc1`, the EC50 (Mucolipin-3) was > 29.9 µM (not active) and the EC50 (Ion channel NompC) was > 29.9 µM (not active).

For `Cc1ccc(C2C=C(c3ccc4c(c3)OCO4)Nc3ncnn32)cc1` (stereo not drawn), the IC50 [8] was 38.9 µM (active).
